# Source: patent US20150094279A1, “PHARMACEUTICAL COMPOSITION AND METHOD FOR INHIBITING INFLAMMATION” (CHINA MEDICAL UNIVERSITY, priority 2011, published 2015)
# How the values were obtained:
# [1] = tested on: tumor necrosis factor-α (TNF-α); assay: Sandwich ELISA quantification of TNF-α in supernatants of treated fibroblast-like synoviocytes; type: cell-based, human; details: fibroblast-like synoviocytes from patients with degenerative arthritis, 24 hours treatment, supernatant
# Method: (§1) The fibroblast-like synoviocytes (FLS) from five patients with degenerative arthritis were collected and cultured. First, the joint synovium of the patients were cut into small pieces, suspended in a DMEM (Dulbecco modified eagle's medium) culture medium, and incubated under an environment of 37° C. and 5% CO2 for 3 days. The culture medium contains 1.5 g/L sodium bicarbonate (S6297, Sigma-Aldrich, St Louis, Mo., USA), 1% penicillin-streptomycin-neomycin (P408, Sigma-Aldrich), and 10% fetal bovine serum (04-001-1A, Biological Industries, Grand Island, N.Y., USA).
# (§2) Non-attached cells were removed by a phosphate buffered saline solution (PBS), the culture medium was refreshed, and the attached cells were cultured for 2 weeks. After the above steps were repeated 3 to 6 times, the remaining cells were fibroblast-like synoviocytes. The obtained cells were then used for the following test.
# (§3) The fibroblast-like synoviocytes obtained form Experiment A were cultured in a serum-free culture medium for 24 hours. Then, the fibroblast-like synoviocytes were separately cultured in the following four culture medium for 24 hours: (1) a DMEM culture medium comprising only 10% fetal bovine serum (as a control group); (2) a DMEM culture medium comprising 10% fetal bovine serum and hyaluronic acid (having an average molecular weight of 600 KDa to 800 KDa); (3) a DMEM culture medium comprising 10% fetal bovine serum and vitamin C, vitamin D, or vitamin E; and (4) a DMEM culture medium comprising 10% fetal bovine serum, hyaluronic acid (having an average molecular weight of 600 KDa to 800 KDa), and vitamin C, vitamin D or vitamin E. The concentrations of hyaluronic acid and vitamin in the above four culture mediums were the same as the above Preparation Example.
# (§4) Then, the cells of the aforesaid four groups were collected and centrifuged, and the supernatants were collected for the following analysis.
# (§5) In this experiment, the concentrations of two cytokines related to degenerative arthritis in the collected supernatants from Experiment B were determined by using a sandwich binding protein assay kit (or sandwich ELISA kits, purchased from the eBioscience company) based on the standard curves according to the manufacturer's manual to analyze the expression level of these cytokines and determine the inflammation level of the cells. […] Each sample was analyzed twice, and an enzyme-linked immunosorbent assay (ELISA) reader (Sunrise Remote, TECAN) was used to carry out the measurement.
# Interleukin-1β (IL-1β) = assay: Sandwich ELISA quantification of IL-1β in supernatants of treated fibroblast-like synoviocytes; type: cell-based, human; details: fibroblast-like synoviocytes from patients with degenerative arthritis, 24 hours treatment, supernatant
# Method: as §1, §2, §3, §4, §5
# [2] = Table 1 (vitamin C experiment), control 95.57
# [3] = Table 1 (vitamin C experiment), control 91.98
# [4] = Table 2 (vitamin D experiment), control 106.78
# [5] = Table 3 (vitamin E experiment), control 98.09
# [6] = Table 2 (vitamin D experiment), control 97.47
# [7] = Table 3 (vitamin E experiment), control 97.37
Molecule,"TNF-α average concentration [1, 2]",IL-1β average concentration (Interleukin-1β (IL-1β); [3]),"TNF-α average concentration [1, 4]","TNF-α average concentration [1, 5]",IL-1β average concentration (Interleukin-1β (IL-1β); [6]),IL-1β average concentration (Interleukin-1β (IL-1β); [7])
O=C1O[C@H]([C@@H](O)CO)C(O)=C1O [vitamin C],75.56 pg/mL,77.00 pg/mL,–,–,–,–
hyaluronic acid,75.64 pg/mL,78.79 pg/mL,82.52 pg/mL,79.28 pg/mL,76.03 pg/mL,78.33 pg/mL
vitamin D,–,–,79.52 pg/mL,–,74.78 pg/mL,–
vitamin E,–,–,–,77.03 pg/mL,–,75.57 pg/mL
